In patent US20130115322A1, “Therapeutic Compositions and Methods for Treating Cell Dysplasia Using Extracts From Raspberry and Strawberry” (priority 2003, published 2013):

Legend:
[1] = tested on: VEGF; details: reported; cited from earlier work
[2] = tested on: iNOS; assay: iNOS expression in RE-149 DHD cells; type: cell-based, rat; details: RE-149 DHD cell lines
From the text: (§1) Several BRB extracts and anthocyanins have been administered in JB6 CI 41 mouse epidermal cell lines and RE-149 DHD rat epithelium cancer cell lines, and such model systems are predictive of in vivo biological activity. As further discussed below, the BRB methanol fraction inhibits benzo(a)pyrene-7,8-diol-9,10-epoxide (B(a)PDE)-induced transactivation of transcription factor AP-1 and nuclear factor κB (NFκB, NFKB) activity in JB6 CI 41 cell lines; BRB ethanol extracts inhibited cell proliferation in RE-149 DHD cell lines; and the anthocyanins, cyanidin-3-O-glucoside and cyanidin-3-O-rutinoside derived from BRB ethanol extracts, suppressed the expression of COX-2 and iNOS in RE-149 DHD cell lines. A further embodiment is that even the unpurified components of the BRB ethanol extracts are believed to be safe for human consumption, being derived from a consumable foodstuff using consumable extraction solvents.

[3] = tested on: COX-2; assay: COX-2 expression in RE-149 DHD cells; type: cell-based, rat; details: RE-149 DHD cell lines
From the text: as §1

[4] = tested on: NMBA-induced tumors; details: Chen et al. 2004; cited from earlier work
[5] = tested on: azoxymethane-induced aberrant crypt foci; details: rat colon, Rao et al.; cited from earlier work
[6] = target: T1, iNOS (Homo sapiens, UniProt P35228); details: cytokine-induced colorectal adenocarcinoma DLD cells; cited from earlier work
T1 construct: its specificity for iNOS was established in cytokine-induced colorectal adenocarcinoma DLD cells; endogenous in cells; host or cells: cytokine-induced colorectal adenocarcinoma DLD cells
T1 sequence (P35228 whole entry): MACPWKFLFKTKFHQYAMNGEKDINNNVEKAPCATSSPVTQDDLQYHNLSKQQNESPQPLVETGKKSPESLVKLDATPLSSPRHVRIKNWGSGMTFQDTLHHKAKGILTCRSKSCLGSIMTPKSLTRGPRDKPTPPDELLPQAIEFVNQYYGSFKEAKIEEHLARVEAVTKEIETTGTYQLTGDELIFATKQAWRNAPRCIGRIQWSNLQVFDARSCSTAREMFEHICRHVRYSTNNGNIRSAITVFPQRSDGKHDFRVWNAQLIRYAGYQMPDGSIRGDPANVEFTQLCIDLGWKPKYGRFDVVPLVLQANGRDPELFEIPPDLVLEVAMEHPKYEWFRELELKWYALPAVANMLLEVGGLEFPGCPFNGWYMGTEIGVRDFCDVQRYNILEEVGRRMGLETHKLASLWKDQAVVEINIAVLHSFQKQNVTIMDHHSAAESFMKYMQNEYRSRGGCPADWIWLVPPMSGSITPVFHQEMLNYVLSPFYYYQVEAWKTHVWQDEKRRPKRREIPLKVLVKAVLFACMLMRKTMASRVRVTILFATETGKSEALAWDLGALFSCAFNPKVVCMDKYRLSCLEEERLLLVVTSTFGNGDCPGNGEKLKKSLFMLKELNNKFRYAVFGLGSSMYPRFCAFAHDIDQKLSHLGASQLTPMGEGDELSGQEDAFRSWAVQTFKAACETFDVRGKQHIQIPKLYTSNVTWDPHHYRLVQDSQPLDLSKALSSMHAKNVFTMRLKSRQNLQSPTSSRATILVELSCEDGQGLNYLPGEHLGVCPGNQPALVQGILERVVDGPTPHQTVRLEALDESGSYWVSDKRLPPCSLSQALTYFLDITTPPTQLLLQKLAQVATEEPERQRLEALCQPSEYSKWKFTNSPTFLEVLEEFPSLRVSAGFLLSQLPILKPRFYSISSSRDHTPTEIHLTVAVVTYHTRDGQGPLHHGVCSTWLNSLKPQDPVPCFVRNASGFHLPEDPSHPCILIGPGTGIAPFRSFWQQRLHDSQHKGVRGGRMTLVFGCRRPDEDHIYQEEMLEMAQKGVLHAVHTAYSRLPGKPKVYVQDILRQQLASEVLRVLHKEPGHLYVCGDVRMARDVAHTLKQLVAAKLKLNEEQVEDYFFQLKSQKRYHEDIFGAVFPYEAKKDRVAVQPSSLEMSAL

[7] = tested on: normal, premalignant and malignant oral epithelial cell lines; assay: Growth and cytotoxicity in oral epithelial cell lines; type: cell-based, human
Method: In particular, using a panel of normal, premalignant and malignant oral epithelial cell lines, the cellular (growth inhibiting and cytotoxic) effects of phytochemicals found in black raspberry fractions was determined (i.e., F001, F003, DM, and ME/Et, see FIGS. 2A and 2B).

Row | Structure (SMILES) | angiogenesis by inhibiting VEGF expression [1] | expression of iNOS [2] | expression of COX-2 [3] | also measured
1 | Cc1nc(C2CCCCC2)c(-c2ccc(S(N)(=O)=O)c(F)c2)o1 [JTE-522] | effectively block angiogenesis |  |  | 
2 | CS(=O)(=O)Nc1ccc([N+](=O)[O-])cc1OC1CCCCC1 [NS-398] | effectively block angiogenesis |  |  | 
3 | OC[C@H]1O[C@@H](Oc2cc3c(O)cc(O)cc3[o+]c2-c2ccc(O)c(O)c2)[C@H](O)[C@@H](O)[C@@H]1O [cyanidin-3-O-glucoside] |  | suppressed | suppressed | 
4 | N=C(N)SCCc1ccc(CCSC(=N)N)cc1 [PBIT, S,S-1,4-phenylene-bis(1,2-ethanediyl)bis-isothiourea] |  |  |  | NMBA-induced tumors in the rat esophagus [4]: inhibit; aberrant crypt foci formation, crypt multiplicity, and iNOS activity [5]: suppressed; selectivity for iNOS over endothelial and neuronal NOS [6]: selectively inhibit iNOS
5 | O=c1oc2c(O)c(O)cc3c(=O)oc4c(O)c(O)cc1c4c23 [Ellagic acid] |  |  |  | growth of oral cell lines [7]: potent, non-selective, inhibitor
6 | C[C@@H]1O[C@@H](OC[C@H]2O[C@@H](Oc3cc4c(O)cc(O)cc4[o+]c3-c3ccc(O)c(O)c3)[C@H](O)[C@@H](O)[C@@H]2O)[C@H](O)[C@H](O)[C@H]1O [cyanidin-3-O-rutinoside] |  | suppressed | suppressed | 
